Where two headings read alike, the source gives them in different places.
Target: Human Factor D (Homo sapiens (Human), UniProt P00746)
Test: Human Factor D Assay
Format: biochemical
Outline: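 Serum-purified human Factor D (80 nM final) was preincubated with test compound at various concentrations for 5 min at room temperature in 50 mM Tris, 1M NaCl, pH 7.5. Z-L-Lys-SBzl and DTNB were then added at 100 μM each. IC50 came from nonlinear regression of reaction rates versus compound concentration.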

[1] = Human Factor D 80 nM, substrate Z-L-Lys-SBzl, read-out: IC50
[2] = Human Factor D assay of Example 8, Table 2, read-out: IC50
[3] = Human Factor D, Table 3, read-out: IC50
[4] = Table 3, Human Factor D 80 nM, substrate Z-L-Lys-SBzl, read-out: IC50 (Stars)

Sequence of Human Factor D (P00746 26-253): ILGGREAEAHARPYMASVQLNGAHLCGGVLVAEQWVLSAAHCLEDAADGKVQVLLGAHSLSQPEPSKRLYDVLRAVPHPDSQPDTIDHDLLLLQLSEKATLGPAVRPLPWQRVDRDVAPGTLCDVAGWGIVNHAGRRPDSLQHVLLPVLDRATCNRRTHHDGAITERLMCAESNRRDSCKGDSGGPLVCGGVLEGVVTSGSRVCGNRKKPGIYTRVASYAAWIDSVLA

Compound | IC50 [1] | IC50 [2] | other results
NC(=O)c1nn(CC(=O)N2C[C@H](F)C[C@H]2C(=O)Nc2nnc(-c3ccc(Cl)c(Cl)c3)s2)c2ccc(-c3ccnnc3)cc12 [Compound 69, 1-(2-((2S,4R)-2-(5-(3,4-dichlorophenyl)-1,3,4-thiadiazol-2-ylcarbamoyl)-4-fluoropyrrolidin-1-yl)-2-oxoethyl)-5-(pyridazin-4-yl)-1H-indazole-3-carboxamide] | > 10000 nM |  | 
CC(=O)c1nn(CC(=O)N2[C@@H]3C[C@@H]3C[C@H]2C(=O)Nc2cccc(Br)n2)c2ccc(-c3cnc(C)nc3)cc12 [Compound 190, (1R,3S,5R)-2-(2-(3-acetyl-5-(2-methylpyrimidin-5-yl)-1H-indazol-1-yl)acetyl)-N-(6-bromopyridin-2-yl)-2-azabicyclo[3.1.0] hexane-3-carboxamide] | < 1000 nM |  | 
CC(=O)c1nn(CC(=O)N2C[C@H](F)C[C@H]2C(=O)Nc2cccc(Br)n2)c2ccc(-c3cnc4cc(C(N)=O)nn4c3)cc12 [Compound 288, 6-(3-Acetyl-1-(2-((2S,4R)-2-((6-Bromopyridin-2-yl)carbamoyl)-4-fluoropyrrolidin-1-yl)-2-oxoethyl)-1H-indazol-5-yl)pyrazolo[1,5-a]pyrimidine-2-carboxamide] |  | < 1000 nM | 
CC(=O)c1cn(CC(=O)N2[C@@H]3C[C@@H]3C[C@H]2C(=O)Nc2cccc(-c3ccccc3Cl)c2F)c2ccc(-c3cnc(C)nc3)cc12 [Compound 133, (1R,3S,5R)-2-(2-(3-acetyl-5-(2-methylpyrimidin-5-yl)-1H-indol-1-yl)acetyl)-N-(2′-chloro-2-fluorobiphenyl-3-yl)-2-azabicyclo[3.1.0] hexane-3-carboxamide] | < 1000 nM |  | 
NC(=O)c1nn(CC(=O)N2C[C@H](F)C[C@H]2C(=O)N[C@H]2CCCC[C@@H]2OCc2ccccc2)c2ccc(-c3ccnnc3)cc12 [Compound 78, 1-(2-((2S,4R)-2-((1S,2S)-2-(benzyloxy)cyclohexyl-carbamoyl)-4-fluoropyrrolidin-1-yl)-2-oxoethyl)-5-(pyridazin-4-yl)-1H-indazole-3-carboxamide] | > 10000 nM |  | 
CC(=O)c1cn(CC(=O)N2C[C@H](F)C[C@H]2C(=O)Nc2cccc(OC(F)(F)F)c2F)c2ccc(-c3cnc4cc(C)nn4c3)cc12 [Compound 276, (2S,4R)-1-(2-(3-acetyl-5-(2-methylpyrazolo[1,5-a]pyrimidin-6-yl)-1H-indol-1-yl)acetyl)-4-fluoro-N-(2-fluoro-3-(trifluoromethoxy)phenyl)pyrrolidine-2-carboxamide] |  | < 1000 nM | 
CC(=O)c1nn(CC(=O)N2[C@@H]3C[C@@H]3C[C@H]2C(=O)Nc2cccc(Br)n2)c2ccc(-c3ccc4nc(C)nn4c3)cc12 [Compound 660, (1R,3S,5R)-2-(2-(3-Acetyl-5-(2-methyl-[1,2,4]triazolo[1,5-a]pyridin-6-yl)-1H-indazol-1-yl)acetyl)-N-(6-bromopyridin-2-yl)-2-azabicyclo[3.1.0]hexane-3-carboxamide] |  |  | IC50 [3]: < 1000 nM
CC(=O)c1nn(CC(=O)N2CC[C@@H](N)[C@H]2C(=O)Nc2cccc(Br)n2)c2ccc(-c3cnc(C)nc3)cc12 [Compound 270, (2S,3R)-1-(2-(3-Acetyl-5-(2-methylpyrimidin-5-yl)-1H-indazol-1-yl)acetyl)-3-amino-N-(6-bromopyridin-2-yl)pyrrolidine-2-carboxamide] |  | < 1000 nM | 
CC(=O)n1cc(CC(=O)N2C[C@H](F)C[C@H]2C(=O)Nc2cccc(-c3ccccc3Cl)c2F)c2ccc(-c3cnc(C)nc3)cc21 [Compound 710, (2S,4R)-1-(2-(1-Acetyl-6-(2-methylpyrimidin-5-yl)-1H-indol-3-yl)acetyl)-N-(2′-chloro-2-fluoro-[1,1′-biphenyl]-3-yl)-4-fluoropyrrolidine-2-carboxamide] |  |  | IC50 [3]: < 1000 nM
COC[C@@]12C[C@@H](C(=O)Nc3cccc(Br)n3)N(C(=O)Cn3nc(C(C)=O)c4cc(-c5cnc(C)nc5)ccc43)[C@@H]1C2 [Compound 416, (1R,3S,5S)-2-(2-(3-Acetyl-5-(2-methylpyrimidin-5-yl)-1H-indazol-1-yl)acetyl)-N-(6-bromopyridin-2-yl)-5-(methoxymethyl)-2-azabicyclo[3.1.0]hexane-3-carboxamide] |  |  | IC50 [4]: < 1000 nM
CC(=O)c1nn(CC(=O)N2C[C@H](F)C[C@H]2C(=O)Nc2cccc(Br)n2)c2ccc(-c3cnc4n3CCCC4)cc12 [Compound 309, (2S,4R)-1-(2-(3-acetyl-5-(5,6,7,8-tetrahydroimidazo [1,2-a]pyridin-3-yl)-1H-indazol-1-yl)acetyl)-N-(6-bromopyridin-2-yl)-4-fluoropyrrolidine-2-carboxamide] |  | < 1000 nM | 
CC(=O)c1nn(CC(=O)N2C[C@H](F)C[C@H]2C(=O)Nc2cccc(Br)n2)c2ccc(-c3cnn4ccnc4c3)cc12 [Compound 304, (2S,4R)-1-(2-(3-acetyl-5-(imidazo[1,2-b]pyridazin-7-yl)-1H-indazol-1-yl)acetyl)-N-(6-bromopyridin-2-yl)-4-fluoropyrrolidine-2-carboxamide] |  | < 1000 nM | 
CC(=O)c1cn(CC(=O)N2C[C@@H](F)C[C@@H]2C(=O)NC2CCCN(c3ccccc3Cl)C2=O)c2ccc(-c3ccnnc3)cc12 (stereo partly drawn) [Compound 161, (2R,4S)-1-(2-(3-acetyl-5-(pyridazin-4-yl)-1H-indol-1-yl)acetyl)-N-(1-(2-chlorophenyl)-2-oxopiperidin-3-yl)-4-fluoropyrrolidine-2-carboxamide] | < 1000 nM |  | 
CC(=O)c1nn(CC(=O)N2[C@@H]3C[C@@H]3C[C@H]2C(=O)Nc2cncc(Br)n2)c2ccc(-c3cnc4ccnn4c3)cc12 [Compound 664, (1R,3S,5R)-2-(2-(3-Acetyl-5-(pyrazolo[1,5-a]pyrimidin-6-yl)-1H-indazol-1-yl)acetyl)-N-(6-bromopyrazin-2-yl)-2-azabicyclo[3.1.0]hexane-3-carboxamide] |  |  | IC50 [3]: < 1000 nM
NC(=O)c1nn(CC(=O)N2C[C@H](F)C[C@H]2C(=O)Nc2cccc(Br)n2)c2ccc(-c3cncnc3)cc12 [Compound 5, 1-(2-((2S,4R)-2-(6-bromopyridin-2-ylcarbamoyl)-4-fluoropyrrolidin-1-yl)-2-oxoethyl)-5-(pyrimidin-5-yl)-1H-indazole-3-carboxamide] | < 1000 nM |  | 
Cc1ncc(-c2ccc3c(c2)c(C(N)=O)nn3CC(=O)N2C[C@H](F)C[C@H]2C(=O)Nc2cccc(-c3ccccc3Cl)c2F)cn1 [Compound 103] | < 1000 nM |  | 
COc1ncc(-c2ccc3c(c2)c(C(C)=O)cn3CC(=O)N2C[C@H](F)C[C@H]2C(=O)Nc2cccc(Br)n2)cn1 [Compound 21, (2S,4R)-1-(2-(3-acetyl-5-(2-methoxypyrimidin-5-yl)-1H-indol-1-yl)acetyl)-N-(6-bromopyridin-2-yl)-4-fluoropyrrolidine-2-carboxamide] | < 1000 nM |  | 
CC(=O)c1nn(CC(=O)N2C[C@H](F)C[C@H]2C(=O)Nc2cccc(Br)n2)c2ccc(N3CCn4c(nnc4C(F)(F)F)C3)cc12 [Compound 244, (2S,4R)-1-(2-(3-acetyl-5-(3-(trifluoromethyl)-5,6-dihydro-[1,2,4]triazolo[4,3-a]pyrazin-7(8H)-yl)-1H-indazol-1-yl)acetyl)-N-(6-bromopyridin-2-yl)-4-fluoropyrrolidine-2-carboxamide] |  | < 1000 nM | 
CC(=O)c1nn(CC(=O)N2C[C@H](F)C[C@H]2C(=O)Nc2cccc(-c3cccc(S(C)(=O)=O)c3)c2F)c2ccc(-c3cnc(C)nc3)cc12 [Compound 295, (2S,4R)-1-(2-(3-Acetyl-5-(2-methylpyrimidin-5-yl)-1H-indazol-1-yl)acetyl)-4-fluoro-N-(2-fluoro-3′-(methylsulfonyl)-[1,1′-biphenyl]-3-yl)pyrrolidine-2-carboxamide] |  | < 1000 nM | 
NC(=O)c1nn(CC(=O)N2C[C@H](F)C[C@H]2C(=O)Nc2ccc(F)c(-c3nnc4n3CCCCC4)c2)c2ccc(-c3ccnnc3)cc12 [Compound 91, 1-(2-((2S,4R)-4-fluoro-2-(4-fluoro-3-(6,7,8,9-tetrahydro-5H-[1,2,4]triazolo[4,3-a]azepin-3-yl)phenylcarbamoyl)pyrrolidin-1-yl)-2-oxoethyl)-5-(pyridazin-4-yl)-1H-indazole-3-carboxamide] | > 10000 nM |  | 
CC(=O)c1nn(CC(=O)N2C[C@H](F)C[C@H]2C(=O)Nc2cccc(-c3ccccc3Cl)c2F)c2ccc(-c3cnc4ccnn4c3)cc12 [Compound 237, (2S,4R)-1-(2-(3-acetyl-5-(pyrazolo[1,5-a]pyrimidin-6-yl)-1H-indazol-1-yl)acetyl)-N-(2′-chloro-2-fluorobiphenyl-3-yl)-4-fluoropyrrolidine-2-carboxamide] |  | < 1000 nM | 
COc1cc2c(cc1-c1cnc(C)nc1)c(C(C)=O)nn2CC(=O)N1C[C@H](F)C[C@H]1C(=O)Nc1cccc(Br)n1 [Compound 373, (2S,4R)-1-(2-(3-Acetyl-6-methoxy-5-(2-methylpyrimidin-5-yl)-1H-indazol-1-yl)acetyl)-N-(6-bromopyridin-2-yl)-4-fluoropyrrolidine-2-carboxamide] |  |  | IC50 [4]: < 1000 nM
Cc1ncc(-c2ccc3c(c2)c(C(C)O)nn3CC(=O)N2C[C@H](F)C[C@H]2C(=O)Nc2cccc(Br)n2)cn1 (stereo partly drawn) [Compound 376, (2S,4R)-N-(6-bromopyridin-2-yl)-4-fluoro-1-(2-(3-(1-hydroxyethyl)-5-(2-methylpyrimidin-5-yl)-1H-indazol-1-yl)acetyl)pyrrolidine-2-carboxamide] |  |  | IC50 (read-out: IC50 (Stars)): 1000 to 10000 nM
CSc1cccc(NC(=O)[C@@H]2C[C@@H](F)CN2C(=O)Cn2nc(C(C)=O)c3cc(-c4cnc(C)nc4)ccc32)n1 [Compound 246, (2S,4R)-1-(2-(3-acetyl-5-(2-methylpyrimidin-5-yl)-1H-indazol-1-yl)acetyl)-4-fluoro-N-(6-(methylthio)pyridin-2-yl)pyrrolidine-2-carboxamide] |  | < 1000 nM | 
CC(=O)c1nn(CC(=O)N2[C@H](C(=O)Nc3nc(Br)ccc3C)C[C@@H]3C[C@@H]32)c2ccc(-c3cnc(C)nc3)cc12 [Compound 647, (1S,3S,5S)-2-(2-(3-Acetyl-5-(2-methylpyrimidin-5-yl)-1H-indazol-1-yl)acetyl)-N-(6-bromo-3-methylpyridin-2-yl)-2-azabicyclo[3.1.0]hexane-3-carboxamide] |  |  | IC50 [3]: < 1000 nM
